`CCCc1nc2c(N)nc3cc(-c4cccc(CO)c4)ccc3c2s1` [Example 1, [3-(4-Amino-2-propylthiazolo[4,5-c]quinolin-7-yl)phenyl]methanol] showed a melting point of 186 to 188 °C.
For the compound `CCCc1nc2c(N)nc3cc(-c4cccc(NS(C)(=O)=O)c4)ccc3c2s1` [Example 2, N-[3-(4-Amino-2-propylthiazolo[4,5-c]quinolin-7-yl)phenyl]methanesulfonamide], the melting point lay in the range of 228 to 231 °C.
`CCCc1nc2c(N)nc3cc(-c4ccccc4CO)ccc3c2s1` [Example 3, [2-(4-Amino-2-propylthiazolo[4,5-c]quinolin-7-yl)phenyl]methanol] showed a melting point of 216 to 219 °C.
For `CCCc1nc2c(N)nc3cc(-c4cccc(C(=O)N5CCOCC5)c4)ccc3c2s1` [Example 4, 7-[3-(Morpholin-4-ylcarbonyl)phenyl]-2-propylthiazolo[4,5-c]quinolin-4-amine], the melting point lay within 190 to 193 °C.
`CCCc1nc2c(N)nc3cc(-c4cccc(C(=O)N(CC)CC)c4)ccc3c2s1` [Example 42, 3-(4-Amino-2-propylthiazolo[4,5-c]quinolin-7-yl)-N,N-diethylbenzamide] registered a melting point of 169 to 172 °C.
`CCCc1nc2c(N)nc3cc(-c4cccc(C(=O)N5CCCC5)c4)ccc3c2s1` [Example 43, 2-Propyl-7-[3-(pyrrolidin-1-ylcarbonyl)phenyl]thiazolo[4,5-c]quinolin-4-amine]: the melting point was 177 to 180 °C.
With `CCCc1nc2c(N)nc3cc(-c4ccc(NC(C)=O)cc4)ccc3c2s1` [Example 44, N-[4-(4-Amino-2-propylthiazolo[4,5-c]quinolin-7-yl)phenyl]acetamide], the melting point lay in the range of 252 to 255 °C.
The compound `CCCc1nc2c(N)nc3cc(-c4cccc(C(=O)NC5CC5)c4)ccc3c2s1` [Example 45, 3-(4-Amino-2-propylthiazolo[4,5-c]quinolin-7-yl)-N-cyclopropylbenzamide] yielded a melting point of 251 to 254 °C.
`CCCc1nc2c(N)nc3cc(-c4ccccc4NC(C)=O)ccc3c2s1` [Example 46, N-[2-(4-Amino-2-propylthiazolo[4,5-c]quinolin-7-yl)phenyl]acetamide] had a melting point of 206 to 209 °C.
`CCCc1nc2c(N)nc3cc(-c4ccccc4C(N)=O)ccc3c2s1` [Example 47, 2-(4-Amino-2-propylthiazolo[4,5-c]quinolin-7-yl)benzamide] returned a melting point of 274 to 276 °C.
As for `CCCc1nc2c(N)nc3cc(-c4cccc(S(C)(=O)=O)c4)ccc3c2s1` [Example 48, 7-[3-(Methylsulfonyl)phenyl]-2-propylthiazolo[4,5-c]quinolin-4-amine], the melting point lay within 242 to 245 °C.
`CCCc1nc2c(N)nc3cc(-c4cccc(NC(C)=O)c4)ccc3c2s1` [Example 49, N-[3-(4-Amino-2-propylthiazolo[4,5-c]quinolin-7-yl)phenyl]acetamide]: the melting point lay within 173 to 176 °C.
`CCCc1nc2c(N)nc3cc(-c4cccc(CN)c4)ccc3c2s1` [Example 50, 7-(3-Aminomethylphenyl)-2-propylthiazolo[4,5-c]quinolin-4-amine]: the melting point is 168 to 171 °C.
`CCCc1nc2c(N)nc3cc(-c4ccc(F)cc4CN)ccc3c2s1` [Example 51, 7-[2-(Aminomethyl)-4-fluorophenyl)-2-propylthiazolo[4,5-c]quinolin-4-amine]: the melting point lay in the range of 181 to 184 °C.
`CCCc1nc2c(N)nc3ccc(-c4cccc(S(C)(=O)=O)c4)cc3c2s1` [Example 134, 8-[3-(Methylsulfonyl)phenyl]-2-propylthiazolo[4,5-c]quinolin-4-amine] yielded a melting point of 252 to 255 °C.
The result for `CCCc1nc2c(N)nc3ccc(-c4cccc(NC(C)=O)c4)cc3c2s1` [Example 135, N-[3-(4-Amino-2-propylthiazolo[4,5-c]quinolin-8-yl)phenyl]acetamide] reads 242 to 245 °C; that for `CCCc1nc2c(N)nc3ccc(-c4ccc(F)cc4CN)cc3c2s1` [Example 136, 8-[2-(Aminomethyl)-4-fluorophenyl]-2-propylthiazolo[4,5-c]quinolin-4-amine], 198 to 201 °C; that for `CCCc1nc2c(N)nc3ccc(-c4ccc(NC(C)=O)cc4)cc3c2s1` [Example 137, N-[4-(4-Amino-2-propylthiazolo[4,5-c]quinolin-8-yl)phenyl]acetamide], 251 to 254 °C.
In turn, `CCCc1nc2c(N)nc3ccc(-c4cccc(NS(C)(=O)=O)c4)cc3c2s1` [Example 138, N-[3-(4-Amino-2-propylthiazolo[4,5-c]quinolin-8-yl)phenyl]methanesulfonamide] registered a melting point of 244 to 246 °C.
On to `CCCc1nc2c(N)nc3ccc(-c4ccccc4CO)cc3c2s1` [Example 139, [2-(4-Amino-2-propylthiazolo[4,5-c]quinolin-8-yl)phenyl]methanol], for which the melting point lay within 194 to 196 °C.
The result for `CCCc1nc2c(N)nc3ccc(-c4cccc(CO)c4)cc3c2s1` [Example 140, [3-(4-Amino-2-propylthiazolo[4,5-c]quinolin-8-yl)phenyl]methanol] reads 176 to 177 °C; that for `CCCc1nc2c(N)nc3ccc(-c4ccc(CO)cc4)cc3c2s1` [Example 141, [4-(4-Amino-2-propylthiazolo[4,5-c]quinolin-8-yl)phenyl]methanol], 212 to 214 °C; that for `CCCc1nc2c(N)nc3ccc(-c4cccc(CN)c4)cc3c2s1` [Example 142, 8-[3-(Aminomethyl)phenyl]-2-propylthiazolo[4,5-c]quinolin-4-amine], 189 to 191 °C.
The compound `CCCc1nc2c(N)nc3ccc(-c4ccc(CN)cc4)cc3c2s1` [Example 143, 8-[4-(Aminomethyl)phenyl]-2-propylthiazolo[4,5-c]quinolin-4-amine] came in with a melting point of 225 to 226 °C.

Broadly, the melting point is the temperature, or range, at which the solid turns liquid.

The record behind these values is patent US20070259907A1, “ARYL AND ARYLALKYLENYL SUBSTITUTED THIAZOLOQUINOLINES AND THIAZOLONAPHTHYRIDINES” (priority 2004, published 2007).
